Columns and labels:
volunteer [1] = assay: Side effects reported by the volunteers after taking the formulation or drug orally; type: in vivo, human
volunteer [2] = assay: Pre ejaculation time of volunteers after taking the formulation or drug orally; type: in vivo, human; details: for average pre ejaculation time: 5 minutes without the drug
[3] = capsule, 60 mg only, after 3 hours, repeated experiments

SMILES: CN[C@H]1CC[C@@H](c2ccc(Cl)c(Cl)c2)c2ccccc21 [sertraline]
- side effects (volunteer [1]; capsule, 60 mg only): significant side effects (stomach irritation, nausea and headache)
- average pre ejaculation time (volunteer [2]; 60 mg once daily for 10 days continuously): 10 min
- increase in pre-ejaculation time (volunteer [2]; [3]): no significant increase

SMILES: COc1cc(/C=C/C(=O)CC(=O)/C=C/c2ccc(O)c(OC)c2)ccc1O [curcumin, diferuloylmethane]
- changes in pre ejaculation time (volunteer [2]; capsule with curcumin 500 mg, after 1 hours, 3 hours and 12 hours): no significant changes

SMILES: CN(C)CCC[C@@]1(c2ccc(F)cc2)OCc2cc(C#N)ccc21 [escitalopram]
- side effects (volunteer [1]; 20 mg only, once orally): significant side effects
- changes in pre ejaculation time (volunteer [2]; 20 mg only, once orally, after 3 hours): no significant changes

SMILES: CN(C)[C@@H](CCOc1cccc2ccccc12)c1ccccc1 [dapoxetine]
- side effects (volunteer [1]; capsule, 60 mg only): significant side effects (stomach irritation, nausea and headache)
- average pre ejaculation time (volunteer [2]; [3]): 20 min

SMILES: COc1cccc(C2(O)CCCCC2CN(C)C)c1 (centres unmarked) [Tramadol, 2-[(dimethylamino)methyl]-1-(3-methoxyphenyl)-cyclohexanol]
- average pre ejaculation time (volunteer [2]; 20 mg only): 10 min

SMILES: Fc1ccc([C@@H]2CCNC[C@H]2COc2ccc3c(c2)OCO3)cc1 [paroxetine]
- side effects (volunteer [1]; capsule, 30 mg only (paroxetine)): significant side effects (stomach irritation, nausea and headache)
- average pre ejaculation time (volunteer [2]; capsule, 30 mg only, after 3 hours, repeated experiments): 8 min

SMILES: CNCC[C@H](Oc1cccc2ccccc12)c1cccs1 [duloxetine]
- side effects (volunteer [1]; capsule, 60 mg only): significant side effects (stomach irritation, nausea and headache)
- increase in pre-ejaculation time (volunteer [2]; [3]): no significant increase

SMILES: COc1cc2c(cc1OC)[C@@H]1Cc3ccc(OC)c(OC)c3CN1CC2 [rotundine, L-tetrahydropalmatine]
- ejaculation latency (volunteer [2]; alone, taken orally 50~200 mg 1 hr before sex): increase ejaculation latency

SMILES: CC(C)=CCC[C@]1(C)[C@@H](CC=C(C)C)C[C@@]2(CC=C(C)C)C(=O)[C@]1(C(=O)C(C)C)C(=O)C(CC=C(C)C)=C2O [hyperforin]
- side effects (volunteer [1]; 1 capsule, 30 mg only (hyperforin)): headache
- average pre ejaculation time (change) (volunteer [2]; 1 capsule, 10 mg only, after 2 hours): not changed
- average pre ejaculation time (volunteer [2]; 1 capsule, 30 mg only, after 2 hours, repeated tests): around 8 minutes

— patent US11607406B2, “Therapeutical methods, formulations and nutraceutical formulations” (priority 2014, dated 2023)
